The results in this text go back to US20250154145A1, “OXER1 ANTAGONISTS AND USES THEREOF” (Fairhaven Pharmaceuticals Ins., priority 2021, published 2025).

The subject of one assay is neutrophils. The assay is described as follows: Neutrophil calcium flux assay (5-OXO-ETE-stimulated, Indo-1 fluorescence). The following applies: 5-OXO-ETE-stimulated calcium flux. Format: cell-based. The method, boiled down:
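Indo-1-loaded neutrophils (5×10^6 cells/ml, 30 min at 37 °C) in HBSS with Ca/Mg and HEPES, pre-incubated 5 min with antagonist or buffer. Stimulated with 5-OXO-ETE added at 200 nM (4× stock); fluorescence (ex 331/em 410 nm) read every 5 s for 30 cycles, expressed as net fluorescence.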
For orientation: A change in cytosolic calcium serves as a functional read-out for many receptors and channels.

A further assay concerns the target T1, Human OXER1 (Homo sapiens, UniProt Q8TDS5).
T1 construct: host or cells: HEK293 cells, transient transfection
As to the kind of experiment: BRET early endosome trafficking assay (OXER1-Rluc8 / rGFP-FYVE in HEK293 cells). Format: cell-based. The following applies: HEK293 cells transfected with OXER1-Rluc8 and rGFP-FYVE, 5-oxo-ETE agonist. From the text: Background—The following assay can be used for determination of OXER1 activation in living HEK293 cells. Signalling functions of GPCRs are tightly regulated by endocytosis, the targeting of receptors to endosomes and their sorting to lysosomes or recycling to the plasma membrane. The early endosomes (EEs) trafficking assay (Namkung et al., Monitoring G protein-coupled receptor and β-arrestin trafficking in live cells using enhanced bystander BRET, Nat Commun 2016, 7: 12178) uses Rluc8-tagged OXER1 and Renilla GFP (rGFP) attached to the FYVE domain from human endofin/zinc finger FYVE domain-containing protein 16, which binds phosphatidylinositol 3-phosphate in EEs. Agonist stimulation of OXER1-Rluc8 leads to trafficking of the receptor to EEs, and ensuing increase of the donor concentration relative to the rGFP-FYVE acceptor anchored in the same cellular compartment, and thus results in an increase in BRET signal.
Plasmids—Human OXER1 VersaClone cDNA was obtained from R&D Systems. Rluc8 (A55T, C124A, S130A, K136R, A143M, M185V, M253L, and S287L variant of theRenilla renformis luciferase) gBlocks gene fragment (Integrated DNA Technologies, IA) was inserted with linker in frame at the C-terminus of OXER1. The FYVE domain from human endofin (residues Q739 to K806) attached in frame at the C terminus of a humanized Renilla GFP (rGFP), were synthesized as gBlocks gene fragments.
Bioluminescence Resonance Energy Transfer (BRET) Measurement—HEK293 cells were transfected with OXER1-Rluc8 and rGFP-FYVE. The following day, transiently transfected cells were seeded in 96-well white clear bottom microplates coated with poly-D-lysine and left in culture for 24 hours. Cells were washed once with Tyrode's buffer (140 mmol/L NaCl, 1 mmol/L CaCl2, 2.7 mmol/L KCl, 0.49 mmol/L MgCl2, 0.37 mmol/L NaH2PO4, 5.6 mmol/L glucose, 12 mmol/L NaHCO3, and 25 mmol/L HEPES, pH 7.5) before performing assays in Tyrode's buffer. Test compounds were incubated with cells for 15 minutes at 37° C. before addition of […] of the OXER1 agonist 5-oxo-6E,8Z,1IZ,14Z-eicosatetraenoic acid (5-oxo-ETE) for 45 minutes at 37° C. The Rluc8 substrate coelenterazine 400A (Prolume, Lakeside, AZ) was added at a final concentration of […] and BRET readings were collected using a Spark or Infinite M1000 microplate reader (Tecan, Morrisville, NC). BRET^2 readings between Rluc8 and rGFP were collected by sequential integration of the signals detected in the 370 to 450 nm (Rluc8) and 510 to 540 nm (rGFP) windows. The BRET signal was calculated as the ratio of light emitted by acceptor (rGFP) over the light emitted by donor (Rluc8). Ligand-promoted net BRET values were calculated by subtracting vehicle-induced net BRET from ligand-induced net BRET.

T1 sequence (Q8TDS5 whole entry): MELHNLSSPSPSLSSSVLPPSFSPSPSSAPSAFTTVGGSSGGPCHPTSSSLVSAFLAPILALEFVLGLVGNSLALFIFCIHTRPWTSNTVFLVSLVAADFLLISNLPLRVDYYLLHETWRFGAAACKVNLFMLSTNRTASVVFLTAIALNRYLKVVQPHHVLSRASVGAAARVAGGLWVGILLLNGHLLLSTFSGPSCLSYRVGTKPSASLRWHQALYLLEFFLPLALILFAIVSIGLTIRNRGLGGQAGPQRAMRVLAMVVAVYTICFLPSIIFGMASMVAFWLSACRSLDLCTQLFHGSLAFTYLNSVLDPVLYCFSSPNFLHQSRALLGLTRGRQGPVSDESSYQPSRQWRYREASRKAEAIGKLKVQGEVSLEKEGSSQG

Regarding `C[C@H](CC(=O)O)CC(=O)c1c(CCCCCC(F)c2cccc(Cl)c2)n(C)c2ccc(Cl)cc12` (some centres unmarked) [Compound I-47], the IC50 in the assay with neutrophils (Neutrophil) and on Human OXER1 was less than 0.1 µM throughout. As to `C[C@H](CC(=O)O)CC(=O)c1c(CCCCCC(=O)c2cccc(Cl)c2)n(C)c2ccc(Cl)cc12` [Compound I-45], the IC50 in the assay on neutrophils (Neutrophil) and at Human OXER1 was 0.1 to 0.3 µM in each case. For the molecule `CONC(=O)C[C@H](C)CC(=O)c1c(CCCCCCc2cccc(Cl)c2)n(C)c2ccc(Cl)cc12` [Compound I-20], the IC50 (as a rule, the concentration that gives 50% inhibition) in the assay on neutrophils (Neutrophil) was 0.1 to 0.3 µM; at Human OXER1, more than 0.3 µM. On to `C[C@H](CC(=O)O)CC(=O)c1c(CCCCCCc2cccc(F)c2)n(C)c2ccc(Cl)cc12` [Compound I-9], for which the IC50 in the assay on neutrophils (Neutrophil) and on Human OXER1 was less than 0.1 µM in each case. Regarding `C[C@@H](CC(=O)O)CC(=O)c1c([C@@H](O)CCCCCc2cccc(Cl)c2)n(C)c2ccc(Cl)cc12` [Compound I-4], the IC50 in the assay on neutrophils (Neutrophil) and on Human OXER1 was more than 0.3 µM throughout. As to `C[C@H](CC(=O)O)CC(=O)c1c([C@H](O)CCCCCc2cccc(Cl)c2)n(C)c2ccc(Cl)cc12` [Compound I-5], the IC50 in the assay on neutrophils (Neutrophil) and on Human OXER1 was more than 0.3 µM throughout. For the molecule `C[C@H](CC(=O)O)CC(=O)c1c(CCCCCCc2cccc(Cl)c2)n(C)c2ccc(C#N)cc12` [Compound I-98], the IC50 in the assay on neutrophils (Neutrophil) and at Human OXER1 was less than 0.1 µM each time. For `C[C@H](CC(=O)NS(C)(=O)=O)CC(=O)c1c(CCCCCCc2cccc(Cl)c2)n(C)c2ccc(Cl)cc12` [Compound I-14], the IC50 in the assay with neutrophils (Neutrophil) and at Human OXER1 was 0.1 to 0.3 µM each time.

For `CC(CC(=O)O)CC(=O)c1c(CCCCOCc2ccccc2)n(C)c2ncc(C#N)cc12` (centres unmarked) [Compound I-104], the IC50 in the assay on neutrophils (Neutrophil) was less than 0.1 µM; on Human OXER1 it was 0.1 to 0.3 µM. The matching figures for `[2H]C([2H])([2H])n1c(CCCCCCc2cccc(Cl)c2)c(C(=O)C[C@H](C)CC(=O)O)c2cc(Cl)ccc21` [Compound I-40]: less than 0.1 µM and less than 0.1 µM. Take `C[C@H](CC(=O)O)CC(=O)c1c(CCCCOCc2cccc(Cl)c2)n(C)c2ncc(Cl)cc12` [Compound I-83]: the IC50 in the assay on neutrophils (Neutrophil) is less than 0.1 µM; on Human OXER1, 0.1 to 0.3 µM. The matching figures for `C[C@H](CC(=O)O)CC(=O)c1c(CCCCOCc2cccc(Cl)c2)n(C)c2ccc(Cl)cc12` [Compound I-60]: less than 0.1 µM and 0.1 to 0.3 µM. On the same counts, the results for `CC(CC(=O)O)CC(=O)c1c(CCCCOCc2cccc(Cl)c2)n(C)c2ccc(C(F)(F)F)cc12` (centres unmarked) [Compound I-185] are less than 0.1 µM and 0.1 to 0.3 µM. With `C[C@H](CC(=O)O)CC(=O)c1c(CCCCCCc2ccc(O)cc2)n(C)c2ccc(Cl)cc12` [Compound I-10], the IC50 in the assay with neutrophils (Neutrophil) and on Human OXER1 was less than 0.1 µM each time. Consider `C[C@H](CC(=O)O)CC(=O)c1c(CCCCCCc2cccc(Cl)c2)n(C)c2ccc(Cl)cc12` [Compound I-2], for which the IC50 with neutrophils (Neutrophil) and at Human OXER1 was less than 0.1 µM in each case. Turning to `C[C@H](CC(=O)O)CC(=O)c1c(CCCCOCc2ccccc2)n(C)c2ncc(C#N)cc12` [Compound I-105], the values for the IC50 in the assay on neutrophils (Neutrophil) and on Human OXER1 were less than 0.1 µM and 0.1 to 0.3 µM, respectively.

For the molecule `CC(C)CCOCc1c(C(=O)C[C@H](C)CC(=O)O)c2cc(Cl)ccc2n1C` [Compound I-73], the IC50 with neutrophils (Neutrophil) and on Human OXER1 was more than 0.3 µM in each case. For `C[C@H](CC(=O)O)CC(=O)c1c(CCCCOCc2cccc(Cl)c2)n(C)c2ccc(C#N)cc12` [Compound I-180], the IC50 in the assay on neutrophils (Neutrophil) and at Human OXER1 was less than 0.1 µM in each case. As for `CCCCCCc1c(C(=O)C[C@H](C)CC(=O)O)c2cc(Cl)ccc2n1C` [Compound I-11], the IC50 with neutrophils (Neutrophil) and at Human OXER1 was 0.1 to 0.3 µM throughout.

Regarding `CONC(=O)C[C@@H](C)CC(=O)c1c(CCCCCCc2cccc(Cl)c2)n(C)c2ccc(Cl)cc12` [Compound I-19], the IC50 with neutrophils (Neutrophil) and at Human OXER1 was more than 0.3 µM in each case.

For `C[C@@H](CC(=O)c1c(CCCCCCc2cccc(Cl)c2)n(C)c2ccc(Cl)cc12)Cc1nnn[nH]1` [Compound I-13], the IC50 with neutrophils (Neutrophil) and at Human OXER1 was less than 0.1 µM each time. As for `C[C@H](CC(=O)O)CC(=O)c1c(CCCCCC(O)c2cccc(Cl)c2)n(C)c2ncc(Cl)cc12` (some centres unmarked) [Compound I-85], the IC50 with neutrophils (Neutrophil) and at Human OXER1 was less than 0.1 µM in each case. For `C[C@H](CC(=O)O)CC(=O)c1c(CCCCCCc2ccccc2)n(C)c2ccc(Cl)cc12` [Compound I-7], the IC50 with neutrophils (Neutrophil) and on Human OXER1 was less than 0.1 µM in each case. For `C[C@H](CC(=O)O)CC(=O)c1c(CCCCCCc2ccc(O)c(Cl)c2)n(C)c2ccc(Cl)cc12` [Compound I-48], the IC50 in the assay with neutrophils (Neutrophil) and at Human OXER1 was less than 0.1 µM in each case. As to `C[C@@H](CC(=O)O)CC(=O)c1c(CCCCCCc2cccc(Cl)c2)oc2ccc(Cl)cc12` [Compound I-22], the IC50 in the assay on neutrophils (Neutrophil) is more than 0.3 µM; on Human OXER1 it was 0.1 to 0.3 µM. For `Cn1c(CCCCCCCC#CC2CC(F)(F)C2)c(C(=O)N2CC[C@H](c3nnn[nH]3)C2)c2cc(C#N)cnc21` [Compound I-358], the IC50 in the assay with neutrophils (Neutrophil) was more than 0.3 µM. The same measure, in the same setting: to `CC(CC(=O)O)CC(=O)c1c(CCOCCNc2cccnc2)n(C)c2ncc(Cl)cc12` (centres unmarked) [Compound I-139] belongs more than 0.3 µM; to `C[C@H](CC(=O)O)CC(=O)c1c(CCCCCCC#CC(C)(C)C)n(C)c2ccc(Cl)cc12` [Compound I-112], less than 0.1 µM. Consider `Cn1c(CCCCOCc2cccc(Cl)c2)c(C(=O)N2CC[C@H](c3nnn[nH]3)C2)c2cc(C#N)cnc21` [Compound I-224], for which, in the assay on neutrophils (Neutrophil), the IC50 was 0.1 to 0.3 µM. The same measure, in the same setting: the value for `C[C@H](CC(=O)NCCS(=O)(=O)O)CC(=O)c1c(CCCCOCc2ccccc2)n(C)c2ncc(C#N)cc12` [Compound I-461] was more than 0.3 µM; that for `C[C@H](CC(=O)O)CC(=O)c1c(CCCCCCc2cccc(Cl)c2)n(CCO)c2ncc(C#N)cc12` [Compound I-279] was less than 0.1 µM; that for `CC(CNC(=O)c1c(CCCCOCc2cccc(Cl)c2)n(C)c2ncc(C(N)=O)cc12)C(=O)O` (centres unmarked) [Compound I-287] was more than 0.3 µM. The same measure, in the same setting: to `CC(=O)Nc1cccc(COCCCCc2c(C(=O)CC(C)CC(=O)O)c3cc(C#N)cnc3n2C)c1` (centres unmarked) [Compound I-298] belongs 0.1 to 0.3 µM.

In the case of `CC(CC(=O)O)CC(=O)c1c(CCCCCC(O)c2cccc(C(=O)N(C)C)c2)n(C)c2ncc(C#N)cc12` (single isomer, unassigned) [Compound I-318], the IC50 in the assay with neutrophils fell in the range of 0.1 to 0.3 µM.

Regarding `C[C@H](CC(=O)O)CC(=O)c1c(CCCCCCCC#CC2CC(F)(F)C2)n(C)c2ccc(Cl)cc12` [Compound I-331], the IC50 in the assay with neutrophils (Neutrophil) is less than 0.1 µM. On the same count and under the same terms, to `C[C@H](CC(=O)O)CC(=O)c1c(CCCCC#Cc2cccnc2)n(C)c2ccc(Cl)cc12` [Compound I-176] belongs less than 0.1 µM; to `C[C@@H]1[C@@H](C(=O)O)CCN1C(=O)c1c(CCCCCCC#CC2CC(F)(F)C2)n(C)c2ncc(C#N)cc12` [Compound I-346], less than 0.1 µM; to `C[C@H](CC(=O)O)NC(=O)c1c(CCCCCCc2cccc(Cl)c2)n(C)c2ccc(Cl)cc12` [Compound I-237], more than 0.3 µM. Take `Cn1c(CCCCCCc2cccc(Cl)c2)c(C(=O)N2CC[C@H](C(=O)O)C2)c2cc(C#N)cnc21` [Compound I-338]: the IC50 in the assay on neutrophils (Neutrophil) is less than 0.1 µM. As to `Cn1c(CCCCCCc2cccc(Cl)c2)c(C(=O)N2CCC(C)(C(=O)O)C2)c2cc(Cl)ccc21` (centres unmarked) [Compound I-157], the IC50 with neutrophils (Neutrophil) is more than 0.3 µM. On the same count and under the same terms, the value for `C[C@@H](CC(=O)O)CC(=O)c1c(CCCCOCc2cccc(Cl)c2)n(C)c2ccc(C#N)cc12` [Compound I-469] was 0.1 to 0.3 µM; that for `C[C@@H](CC(=O)O)CC(=O)c1c(CCCCOCc2cccc(C#N)c2)n(C)c2cnc(Cl)cc12` [Compound I-405] was more than 0.3 µM.

`C[C@H](CC(=O)O)NC(=O)c1c(CCCCOCc2cccc(Cl)c2)n(C)c2ncc(C#N)cc12` [Compound I-238]: in the assay with neutrophils (Neutrophil), the IC50 was more than 0.3 µM.
